In the first assay the target is T1, cis-zeatin O-glucosyltransferase (cis-ZOG1) (Zea mays, UniProt Q93XP7).
T1 construct: His7 (seven histidine residues, from the vector); made in house; host or cells: E. coli XL1 Blue
T1 sequence (Q93XP7 1-467): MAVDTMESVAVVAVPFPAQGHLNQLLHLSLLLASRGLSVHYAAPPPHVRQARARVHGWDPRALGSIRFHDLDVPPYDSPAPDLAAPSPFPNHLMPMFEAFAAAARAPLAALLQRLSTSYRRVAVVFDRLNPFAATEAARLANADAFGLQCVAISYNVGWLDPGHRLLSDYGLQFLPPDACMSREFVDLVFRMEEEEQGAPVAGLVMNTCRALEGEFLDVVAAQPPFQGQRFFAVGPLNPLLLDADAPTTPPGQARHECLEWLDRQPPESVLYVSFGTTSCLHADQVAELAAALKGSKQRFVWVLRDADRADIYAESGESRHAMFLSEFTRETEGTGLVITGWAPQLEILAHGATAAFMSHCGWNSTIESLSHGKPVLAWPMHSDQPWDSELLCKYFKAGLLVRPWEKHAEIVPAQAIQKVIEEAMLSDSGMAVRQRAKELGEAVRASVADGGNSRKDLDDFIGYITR
Kind of assay: Enzyme assay of recombinant cis-ZOG1 with cytokinin substrates and UDPG, products analysed by HPLC. Type of assay: biochemical. The conditions noted are these: recombinant protein, UDPG as glycosyl donor, HPLC analysis. The method, then:
(§1) For FIG. 2B, 200 μL of supernatant obtained from cell culture was incubated with approximately 1 nmol of labeled zeatin and UDPG for 2 hours. For FIG. 2C, Approximately 0.4 nmole of reaction product obtained from reactions similar to FIG. 2B was incubated with β-glucosidase for 4 hours to reconvert the product to zeatin.
3. Isolation of Recombinant Proteins. To obtain recombinant proteins, the ORF of the selected cDNA was amplified by PCR using primers (SEQ ID NOS: 9 and 10) that generated products having an NcoI site at the 5′ and a XbaI site at the 3′ terminus. The PCR products were digested with NcoI and XbaI restriction enzymes and ligated into a p Trc 99A expression vector (Pharmacia) modified to contain seven histidine residues (CAT or CAC), and transformed into the XL1 Blue cell line. Colonies were selected on AMP-LB plates. […] After 4 hours cells were collected and frozen at −80 C overnight. Cells were resuspended in 0.5 mL of 0.2 M Tris pH 7.5 containing 1 mg/mL of lysozyme. Samples were incubated on ice for 30 minutes, frozen for 10 minutes at −80 C, thawed in cold water, and then DNAase (1 μg/10 μl supernatant) was added. After 10 minutes at room temperature, the samples were sonicated with four 15-second bursts to release proteins from cells. Soluble proteins were collected after centrifugation and used for enzyme assays.
4. Enzyme assays and analysis of reaction products. Enzyme activity was determined as reported previously (Dixon et al., Plant Physiol. 90:1316–1321, 1989). Briefly, a specified amount of recombinant protein, ^14C-labeled cis-zeatin (specific activity of 24 mCi/mmol), and a glycosyl donor (4 mM of UDPG) were incubated in MgCl2 (0.07 M) in 0.17 M Tris, pH 8.0. Reaction products were then analyzed by HPLC (Dixon et al., Plant Physiol. 90:1316–1321, 1989).
With `C/C(=C\CNc1ncnc2c1ncn2[C@@H]1O[C@H](CO)[C@@H](O)[C@H]1O)CO` (relative stereo) [trans-ribosylzeatin], the “use as substrate by the recombinant enzyme (O-glucosylation)” value (shortened to “use as substrate”) is recorded as “does not use”.

For the compound `C/C(=C/CNc1ncnc2nc[nH]c12)CO` [cis-zeatin], the “use as substrate” value is “formation of O-glucosyl-cis-zeatin from cis-zeatin”.

For the compound `CC(CO)CCNc1ncnc2nc[nH]c12` (stereo not drawn) [dihydrozeatin], the “use as substrate” value is given as “does not use”.

Turning to `CC(CO)CCNc1ncnc2c1ncn2[C@@H]1O[C@H](CO)[C@@H](O)[C@H]1O` (stereo partly drawn) [ribosyldihydrozeatin], the “use as substrate” value is listed as “does not use”.

Take `C/C(=C\CNc1ncnc2[nH]cnc12)CO` [trans-zeatin]: the “use as substrate” value is recorded as “does not use”.

The next assay relates to β-glucosidase.
Experiment: not given
The conditions noted are these: reaction product incubated with β-glucosidase for 4 hours. How it is done: as §1
With cis-zeatin O-glucoside, the “re-conversion to cis-zeatin by β-glucosidase” value is reported as “re-conversion of the reaction product to cis-zeatin by β-glucosidase”.

Values taken from patent publication US7148405B2, “Enzymes responsible for the metabolism of cis-zeatin” (State of Oregon Acting by and through the State Board of …, priority 2000, dated 2006).
